# According to US20240400555A1 (Initial Therapeutics, Inc., priority 2023, published 2024):
# System: MV-4-11 cells
# Test: Cell Viability Assay in MV-4-11 Cells
# Type: cell-based
# Conditions: Homo sapiens, MV4-11, 72 h
# Summary of the method: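 MV-4-11 cells at 7,000/well in IMDM with 10% FBS, exposed to compound for 72 h. Viability by CellTiter-Glo luminescence, normalized to DMSO as 100%, fitted with a four-parameter curve.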
row,SMILES,IC50 [nM]
1,"CNC(=O)c1ccc2c(N(C(=O)c3ccc(-c4cn(C)nn4)cc3F)[C@@H]3CCCNC3)nccc2c1 [Example 688, (R)-1-(2-fluoro-4-(1-methyl-1H-1,2,3-triazol-4-yl)-N-(piperidin-3-yl)benzamido)-N-methylisoquinoline-6-carboxamide]",> 4500
2,"Cn1cc(-c2ccc(C(=O)N(c3nccc4sc(-c5cnn(CC(N)=O)c5)cc34)[C@@H]3CCCNC3)c(F)c2)nn1 [Example 489, N-[2-[1-(2-amino-2-oxo-ethyl)pyrazol-4-yl]thieno[3,2-c]pyridin-4-yl]-2-fluoro-4-(1-methyltriazol-4-yl)-N-[(3R)-3-piperidyl]benzamide]",> 10000
3,"CC(C)NC(=O)c1ccc2c(N(C(=O)c3ccc(-n4nnc5cccnc54)cc3F)[C@@H]3CCCNC3)nccc2c1 [Example 372, (R)-1-(4-(3H-[1,2,3]triazolo[4,5-b]pyridin-3-yl)-2-fluoro-N-(piperidin-3-yl)benzamido)-N-isopropylisoquinoline-6-carboxamide]",100
4,"C=CCc1ccnc(N(C(=O)c2ccc(Cl)c(CC=C)c2)[C@@H]2CCCNC2)c1 [Example 362, 3-allyl-N-(4-allyl-2-pyridyl)-4-chloro-N-[(3R)-3-piperidyl]benzamide]",4300

# Same assay, conditions: Homo sapiens, MV4-11, 72 h, MV-4-11 cells, 72 h, Cell-Titer Glo; read-out: IC50
row,IC50 [nM],SMILES
1,75,"Cn1ccc2ccnc(N(C(=O)c3ccc(Nc4ncccn4)cc3F)[C@@H]3CCCNC3)c21 [Example 926, (R)-2-fluoro-N-(1-methyl-1H-pyrrolo[2,3-c]pyridin-7-yl)-N-(piperidin-3-yl)-4-(pyrimidin-2-ylamino)benzamide]"
2,3200,"Cn1cc(-c2ccc(C(=O)N(c3nccc4sc(C#CCO)cc34)[C@@H]3CCCNC3)c(F)c2)nn1 [Example 479, (R)-2-fluoro-N-(2-(3-hydroxyprop-1-yn-1-yl)thieno[3,2-c]pyridin-4-yl)-4-(1-methyl-1H-1,2,3-triazol-4-yl)-N-(piperidin-3-yl)benzamide]"
3,180,"Cc1nnc(-c2ccc(C(=O)N(c3nccc4cccc(C)c34)[C@@H]3CCCNC3)nc2)s1 [Example 783, (R)-5-(5-methyl-1,3,4-thiadiazol-2-yl)-N-(8-methylisoquinolin-1-yl)-N-(piperidin-3-yl)picolinamide]"
4,250,"O=C(c1ccc(-n2nnc3cccnc32)cc1F)N(c1nccc2sc(-c3ccccc3O)cc12)[C@@H]1CCCNC1 [Example 428, 2-fluoro-N-[2-(2-hydroxyphenyl)thieno[3,2-c]pyridin-4-yl]-N-[(3R)-3-piperidyl]-4-(triazolo[4,5-b]pyridin-3-yl)benzamide]"
5,510,"Cc1cc(C2CCN(C(=O)N(c3nccc4c(F)ccc(C)c34)[C@@H]3CCCNC3)CC2)on1 [Example 659, (R)—N-(5-fluoro-8-methylisoquinolin-1-yl)-4-(3-methylisoxazol-5-yl)-N-(piperidin-3-yl)piperidine-1-carboxamide]"
6,810,"Cn1cc(-c2ccc(C(=O)N(c3nccc4sc(/C=C\CO)cc34)[C@@H]3CCCNC3)c(F)c2)nn1 [Example 504, (R,Z)-2-fluoro-N-(2-(3-hydroxyprop-1-en-1-yl)thieno[3,2-c]pyridin-4-yl)-4-(1-methyl-1H-1,2,3-triazol-4-yl)-N-(piperidin-3-yl)benzamide]"
7,340,"CN1CCN(c2ccnc(Nc3ccc(C(=O)N(c4nccc5cc(F)ccc45)[C@@H]4CCCNC4)c(F)c3)n2)CC1 [Example 562, (R)-2-fluoro-N-(6-fluoroisoquinolin-1-yl)-4-((4-(4-methylpiperazin-1-yl)pyrimidin-2-yl)amino)-N-(piperidin-3-yl)benzamide]"
8,53,"COCc1nnc(-c2ccc(C(=O)N(c3nccc4cc(Cl)cc(C)c34)[C@@H]3CCCNC3)cn2)s1 [Example 895, N-(6-chloro-8-methyl-1-isoquinolyl)-6-[5-(methoxymethyl)-1,3,4-thiadiazol-2-yl]-N-[(3R)-3-piperidyl]pyridine-3-carboxamide]"
9,9.9,"Cc1cc(F)cc2ccnc(N(C(=O)c3ccc(-c4cn(C)nn4)cc3F)[C@@H]3CCCNC3)c12 [Example 474, (R)-2-fluoro-N-(6-fluoro-8-methylisoquinolin-1-yl)-4-(1-methyl-1H-1,2,3-triazol-4-yl)-N-(piperidin-3-yl)benzamide]"
10,89,"Cc1cc(-c2cc3c(N(C(=O)c4ccc(-n5nnc6cccnc65)cc4F)[C@@H]4CCCNC4)nccc3s2)ccc1C(N)=O [Example 572, 4-[4-[[2-fluoro-4-(triazolo [4,5-b]pyridin-3-yl)benzoyl]-[(3R)-3-piperidyl]amino]thieno [3,2-c]pyridin-2-yl]-2-methyl-benzamide]"
11,200,"Cc1nnc(-c2ccc(C(=O)N(c3nccc4c(F)ccc(C)c34)[C@@H]3CCCNC3)c(F)c2)o1 [Example 660, (R)-2-fluoro-N-(5-fluoro-8-methylisoquinolin-1-yl)-4-(5-methyl-1,3,4-oxadiazol-2-yl)-N-(piperidin-3-yl)benzamide]"
12,180,"C#Cc1csc2ccnc(N(C(=O)c3ccc(-c4nnc(C)s4)cc3F)[C@@H]3CCCNC3)c12 [Example 652, N-(3-ethynylthieno[3,2-c]pyridine-4-yl)-2-fluoro-4-(5-methyl-1,3,4-thiadiazol-2-yl)-N-[(3R)-3-piperidyl] benzamide]"
13,150,"Cc1cn(-c2ccc(C(=O)N(c3nccc4scc(C)c34)[C@@H]3CCCNC3)c(F)c2)nn1 [Example 690, (R)-2-fluoro-4-(4-methyl-1H-1,2,3-triazol-1-yl)-N-(3-methylthieno[3,2-c]pyridin-4-yl)-N-(piperidin-3-yl)benzamide]"
14,710,"Cn1cc(-c2ccc(C(=O)N(c3nccc4sc(Br)cc34)[C@@H]3CCCNC3)c(F)c2)nn1 [Example 506, N-(2-bromothieno[3,2-c]pyridin-4-yl)-2-fluoro-4-(1-methyltriazol-4-yl)-N-[(3R)-3-piperidyl] benzamide]"
15,72,"Cc1cccc2ccnc(N(C(=O)c3ccc(C#N)c(-c4cccc(-c5cn[nH]c5)c4)c3)[C@@H]3CCCNC3)c12 [Example 329, (R)-6-cyano-N-(8-methylisoquinolin-1-yl)-N-(piperidin-3-yl)-3′-(1H-pyrazol-4-yl)-[1,1′-biphenyl]-3-carboxamide]"
16,110,"NC(=O)Cc1ccc(-c2cc3c(N(C(=O)c4ccc(-n5nnc6cccnc65)cc4F)[C@@H]4CCCNC4)nccc3s2)cc1 [Example 570, N-[2-[4-(2-amino-2-oxo-ethyl)phenyl]thieno[3,2-c]pyridin-4-yl]-2-fluoro-N-[(3R)-3-piperidyl]-4-(triazolo[4,5-b]pyridin-3-yl)benzamide]"
17,2400,"Cc1cccc2ccnc(N(C(=O)c3ccc(N4CCOc5ccccc54)cc3F)[C@@H]3CCCNC3)c12 [Example 645, 4-(2,3-dihydro-1,4-benzoxazin-4-yl)-2-fluoro-N-(8-methyl-1-isoquinolyl)-N-[(3R)-3-piperidyl] benzamide]"
18,1600,"O=C(c1ccc(-n2nnc3cccnc32)cc1)N(c1ncccc1Cl)[C@@H]1CCCNC1 [Example 305, (R)-4-(3H-[1,2,3]triazolo[4,5-b]pyridin-3-yl)-N-(3-chloropyridin-2-yl)-N-(piperidin-3-yl)benzamide]"
19,46,"Cc1cccc2ccnc(N(C(=O)c3ccc(Nc4nccc(NCc5cnn(C)c5)n4)cc3F)[C@@H]3CCCNC3)c12 [Example 694, (R)-2-fluoro-4-((4-(((1-methyl-1H-pyrazol-4-yl)methyl)amino)pyrimidin-2-yl)amino)-N-(8-methylisoquinolin-1-yl)-N-(piperidin-3-yl)benzamide]"
